# Measurements: the supplement of paper PMC10307832
# What was measured:
# Test in all cases: relative viability (nuclei count vs DMSO), 5 days (fraction); higher = more cells survive
# Bleomycin + OSI-027 = compound: CC1=C(N=C(N=C1N)[C@H](CC(=O)N)NC[C@@H](C(=O)N)N)C(=O)N[C@@H]([C@H](C2=CN=CN2)OC3C(C(C(C(O3)CO)O)O)OC4C(C(C(C(O4)CO)O)OC(=O)N)O)C(=O)N[C@H](C)[C@H]([C@H](C)C(=O)N[C@@H]([C@@H](C)O)C(=O)NCCC5=NC(=CS5)C6=NC(=CS6)C(=O)NCCC[S+](C)C)O [Bleomycin] + COc1cccc2cc(-c3nc([C@H]4CC[C@H](C(=O)O)CC4)n4ncnc(N)c34)[nH]c12 [OSI-027] (partner 0.5 µM); details: main component drawn
# Outline: (§1)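 Lung cancer cell lines, seeded in 1536-well plates, were treated the following day by pin tool with a single drug or with five library-drug doses (not always all listed) in √10 steps on top of a fixed anchor-drug dose. Cells were fixed and nuclei stained in one step after 5 days, and nuclei were counted. Relative viability is the nuclei count for treated wells divided by that for vehicle wells, reported as medians of duplicate plates.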
# Bleomycin + Linsitinib = compound: CC1=C(N=C(N=C1N)[C@H](CC(=O)N)NC[C@@H](C(=O)N)N)C(=O)N[C@@H]([C@H](C2=CN=CN2)OC3C(C(C(C(O3)CO)O)O)OC4C(C(C(C(O4)CO)O)OC(=O)N)O)C(=O)N[C@H](C)[C@H]([C@H](C)C(=O)N[C@@H]([C@@H](C)O)C(=O)NCCC5=NC(=CS5)C6=NC(=CS6)C(=O)NCCC[S+](C)C)O [Bleomycin] + C[C@]1(O)C[C@@H](c2nc(-c3ccc4ccc(-c5ccccc5)nc4c3)c3c(N)nccn32)C1 [Linsitinib] (partner 1 µM); details: main component drawn
# Outline: as §1
# Bleomycin + Phenformin = compound: CC1=C(N=C(N=C1N)[C@H](CC(=O)N)NC[C@@H](C(=O)N)N)C(=O)N[C@@H]([C@H](C2=CN=CN2)OC3C(C(C(C(O3)CO)O)O)OC4C(C(C(C(O4)CO)O)OC(=O)N)O)C(=O)N[C@H](C)[C@H]([C@H](C)C(=O)N[C@@H]([C@@H](C)O)C(=O)NCCC5=NC(=CS5)C6=NC(=CS6)C(=O)NCCC[S+](C)C)O [Bleomycin] + N=C(N)NC(=N)NCCc1ccccc1 [Phenformin] (partner 250 µM); details: main component drawn
# Outline: as §1
# Etoposide + Luminespib = compound: COc1cc([C@@H]2c3cc4c(cc3[C@@H](O[C@@H]3O[C@@H]5CO[C@@H](C)O[C@H]5[C@H](O)[C@H]3O)[C@H]3COC(=O)[C@H]23)OCO4)cc(OC)c1O [Etoposide] + CCNC(=O)c1noc(-c2cc(C(C)C)c(O)cc2O)c1-c1ccc(CN2CCOCC2)cc1 [Luminespib] (partner 0.01 µM)
# Outline: as §1
Cell Line,relative viability (Bleomycin + OSI-027; first compound 0.01 µM),relative viability (Bleomycin + OSI-027; first compound 0.03162 µM),relative viability (Bleomycin + OSI-027; first compound 0.1 µM),relative viability (Bleomycin + OSI-027; first compound 0.3162 µM),relative viability (Bleomycin + OSI-027; first compound 1 µM),relative viability (Bleomycin + Linsitinib; first compound 0.01 µM),relative viability (Bleomycin + Linsitinib; first compound 0.03162 µM),relative viability (Bleomycin + Linsitinib; first compound 0.1 µM),relative viability (Bleomycin + Linsitinib; first compound 0.3162 µM),relative viability (Bleomycin + Linsitinib; first compound 1 µM),relative viability (Bleomycin + Phenformin; first compound 0.01 µM),relative viability (Bleomycin + Phenformin; first compound 0.03162 µM),relative viability (Bleomycin + Phenformin; first compound 0.1 µM),relative viability (Bleomycin + Phenformin; first compound 0.3162 µM),relative viability (Bleomycin + Phenformin; first compound 1 µM),relative viability (Etoposide + Luminespib; first compound 0.01 µM),relative viability (Etoposide + Luminespib; first compound 0.03162 µM),relative viability (Etoposide + Luminespib; first compound 0.1 µM),relative viability (Etoposide + Luminespib; first compound 0.3162 µM),relative viability (Etoposide + Luminespib; first compound 1 µM)
HCC-44,0.279,0.38,0.248,0.205,0.175,0.462,0.283,0.26,0.176,0.178,0.104,0.0979,0.075,0.0859,0.0579,1.03,0.84,0.774,0.411,0.279
HCC-827,0.71,0.81,0.6,0.562,0.193,0.943,1.02,0.88,0.666,0.308,0.351,0.311,0.361,0.304,0.172,0.283,0.795,0.204,0.315,0.175
NCI-H1623,0.406,0.432,0.464,0.363,0.322,,,,,,0.548,0.631,0.513,0.442,0.333,0.541,0.537,0.347,0.405,0.28
NCI-H2405,0.617,0.596,0.567,0.477,0.346,0.745,0.834,0.69,0.373,0.341,0.333,0.399,0.383,0.263,0.262,0.646,0.65,0.949,0.664,0.301
PC-3 [JPC-3],0.687,0.789,0.648,0.506,0.41,0.865,0.944,0.847,0.723,0.53,0.476,0.511,0.475,0.364,0.336,0.67,0.717,0.549,0.581,0.371
NCI-H1651,0.671,0.524,0.551,0.323,0.186,0.862,0.766,0.596,0.27,0.152,0.314,0.298,0.303,0.17,0.189,0.815,0.724,0.681,0.308,0.209
HARA,0.401,0.505,0.454,0.3,0.176,0.944,1.02,0.887,0.457,0.467,0.432,0.503,0.493,0.361,0.178,0.403,0.999,0.682,0.226,0.106
NCI-H1650,0.468,0.332,0.227,0.171,0.151,,,,,,0.293,0.239,0.206,0.114,0.149,0.204,0.175,0.202,0.209,0.211
NCI-H1395,0.533,0.647,0.516,0.367,0.404,0.715,0.843,0.666,0.626,0.391,0.404,0.411,0.456,0.325,0.351,0.713,0.539,0.607,0.54,0.415
NCI-H2087,,0.515,0.379,0.123,0.126,0.717,0.977,0.895,0.374,0.255,,0.465,0.379,0.184,0.162,0.153,0.162,0.165,0.164,0.155
LU99A,0.253,0.289,0.259,0.234,0.161,0.379,0.348,0.252,0.166,0.127,0.636,0.827,0.673,0.33,0.159,0.279,0.255,0.246,0.22,0.217
NCI-H1355,0.459,0.416,0.427,0.258,0.194,0.794,0.838,0.783,0.463,0.287,0.432,0.487,0.429,0.27,0.194,0.635,0.765,0.403,0.338,0.201
HCC-78,0.38,0.348,0.309,0.311,0.29,0.488,0.343,0.343,0.282,0.179,0.573,0.74,0.581,0.321,0.403,,,,,
NCI-H1563,0.67,0.806,0.657,0.577,0.581,0.919,0.891,0.749,0.642,0.623,0.581,0.658,0.64,0.551,0.511,0.502,0.463,0.479,0.408,0.396
HCC-15,0.645,0.612,0.533,0.182,0.152,0.793,0.804,0.763,0.418,0.288,0.418,0.457,0.387,0.16,0.129,0.473,0.303,0.366,0.15,0.178
